Results as given in ChEMBL document CHEMBL1201862, “PubChem BioAssay data set” (2004).
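Cells were grown in 96-well plates and exposed to each compound for 48 hours at five concentrations; endpoints were interpolated linearly between bracketing concentrations, or set to the highest concentration if not reached. GI50: concentration for 50% inhibition of growth.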 Calls of active or inactive are those of the source. Cut-off read from the data, not from the text of the source: active = GI50 up to about 1.1 µM and inactive = higher.

Legend:
Test in all cases: inhibition of tumour cell growth, NCI panel, 48 h
DMS-273 = system: DMS-273
NCI/ADR-RES = system: NCI/ADR-RES
MDA-MB-231 = system: MDA-MB-231
HCT-15 = system: HCT-15
HCT-116 = system: HCT-116
Malme-3M = system: Malme-3M
LXFL 529 = system: LXFL 529
HL-60 = system: HL-60
SF-539 = system: SF-539
SNB-75 = system: SNB-75
ACHN = system: ACHN
OVCAR-8 = system: OVCAR-8
HT-29 = system: HT-29
SK-OV-3 = system: SK-OV-3
DU-145 = system: DU-145
A549 = system: A549
RXF 393 = system: RXF 393
MDA-N = system: MDA-N
M14 = system: M14
BT-549 = system: BT-549

For `O=C1/C(=C/c2ccc(O)cc2)CCC1CNc1ccc(Cl)cc1` (stereo not given), the GI50 (DMS-273) was 0.836 µM (active), the GI50 (NCI/ADR-RES) was 5.45 µM (inactive) and the GI50 (MDA-MB-231) was 3.04 µM (inactive). The GI50 (HCT-15) was 1.3 µM, the GI50 (HCT-116) was 1.38 µM (inactive) and the GI50 (Malme-3M) was 4.28 µM (inactive). The GI50 (LXFL 529) was 0.357 µM (active), the GI50 (HL-60) was 0.861 µM (active) and the GI50 (SF-539) was 6.37 µM (inactive). For the same molecule, the GI50 (SNB-75) was 15.6 µM (inactive), the GI50 (ACHN) was 0.76 µM (active) and the GI50 (OVCAR-8) was 1.38 µM (inactive). For the same molecule, the GI50 (HT-29) was 1.53 µM (inactive), the GI50 (SK-OV-3) was 5.14 µM (inactive) and the GI50 (DU-145) was 13.3 µM (inactive). For the same molecule, the GI50 (A549) was 7.01 µM (inactive), the GI50 (RXF 393) was 6.31 µM (inactive) and the GI50 (MDA-N) was 6.53 µM (inactive). For the same molecule, the GI50 (M14) was 0.643 µM (active) and the GI50 (BT-549) was 12.6 µM (inactive).
In the case of `N#CC(NNC(=O)c1ccccc1O)c1c(O)ccc2ccccc12` (stereo not given), the GI50 (DMS-273) is reported as 2.52 µM (inactive), the GI50 (NCI/ADR-RES) is reported as 3.44 µM (inactive) and the GI50 (MDA-MB-231) is reported as 3.2 µM (inactive). For the same molecule, the GI50 (HCT-15) was 2.89 µM, the GI50 (HCT-116) was 2.84 µM (inactive) and the GI50 (Malme-3M) was 6.27 µM (inactive). The GI50 (LXFL 529) was 3.76 µM (inactive), the GI50 (HL-60) was 0.713 µM (active) and the GI50 (SF-539) was 4.63 µM (inactive). For the same molecule, the GI50 (SNB-75) was 7.31 µM (inactive), the GI50 (ACHN) was 5.04 µM (inactive) and the GI50 (OVCAR-8) was 3.16 µM (inactive). For the same molecule, the GI50 (HT-29) was 20.3 µM (inactive), the GI50 (SK-OV-3) was 4.68 µM (inactive) and the GI50 (DU-145) was 2.54 µM (inactive). For the same molecule, the GI50 (A549) was 2.94 µM (inactive), the GI50 (RXF 393) was 2.75 µM (inactive) and the GI50 (MDA-N) was 5.16 µM (inactive). For the same molecule, the GI50 (M14) was 3.46 µM (inactive) and the GI50 (BT-549) was 7.11 µM (inactive).
